Tested on in the first series: not listed separately
Kind of series: Inactivation of the enzyme by pH and temperature, with and without calcium. The settings on record: 10^-2 M calcium chloride, 15 min treatment (FIG. 6).
Regarding `[Ca+2].[Cl-].[Cl-]` [CaCl2, calcium chloride], the “Rise of the temperature at which the enzyme is still stable, versus absence of the metal ion” value is approximately 5 °C.

Still in this series, the particulars now being: 10^-2 M-10^-3 M calcium chloride.
With `[Ca+2].[Cl-].[Cl-]` [CaCl2, calcium chloride], the “Thermostability of the enzyme on addition of the salt” value was “enhanced”.

Another series deals with cyclodextrin glycosyltransferase (E.C. 2.4.1.19).
Experiment: not given
The settings on record: pH 7. Type of series: biochemical, Micrococcus varians M 849.
Compound `[Ca+2].[Cl-].[Cl-]` [CaCl2, calcium chloride] came in with a Residual activity of 100%.

`[Cl-].[Cl-].[Co+2]` [CoCl2] displayed a Residual activity of 88%.

`O=S(=O)([O-])[O-].[Cu+2]` [CuSO4]: the “Inhibition of the enzyme (in words)” value is “inhibited” and the Residual activity is 6%.

Take `O=C(O)CN(CCN(CC(=O)O)CC(=O)O)CC(=O)O` [Ethylenediaminetetraacetic acid]: the “Inhibition of the enzyme (in words)” value was “inhibited” and the Residual activity worked out at 2%.

Regarding `O=S(=O)([O-])[O-].[Fe+2]` [FeSO4], the “Inhibition of the enzyme (in words)” value was “inhibited” and the Residual activity is on record as 10%.

`[Cl-].[Cl-].[Mg+2]` [MgCl2] came in with a Residual activity of 100%.

In the case of `O=S(=O)([O-])[O-].[Mg+2]` [MgSO4], the Residual activity is 100%.

In turn, `O=C(O)CI` [Monoiodoacetic acid] returned a Residual activity of 97%.

`c1cnc2c(c1)ccc1cccnc12` [O-Phenanthroline] yielded a Residual activity of 100%.

Take `[Cl-].[Cl-].[Zn+2]` [ZnCl2]: the Residual activity amounted to 100%.

`O=C(O)c1cc[c]([Hg][Cl])cc1` [p-Chloromercuribenzoic acid] came in with a Residual activity of 95%.

Take HgCl2: the “Inhibition of the enzyme (in words)” value is reported as “inhibited” and the Residual activity came to 5%.
